Two molecules from US12084467B2, “Therapeutic compounds for HIV virus infection” (Gilead Sciences, Inc., priority 2021, dated 2024) can be followed below.

Values after ≈ are worked out from the molar mass of the structure shown.

Data set [1] is described as follows: Kinetic solubility analysis (CLND: total chemiluminescent nitrogen determination). The following applies: 1.0% DMSO, 24-hour incubation at ambient temperature, maximum theoretical concentration 100 μM; for pH 2 solubility: 0.1N HCl; for pH 7 solubility: 1×PBS buffer (pH 7.4).
Data set [2] in a line: Oral bioavailability PK in dog. Format: in vivo. The following applies: Beagle dog, oral gavage, solution vehicle 5% ethanol, 20% propylene glycol, 75% water; based on observed exposure of Intermediate 5 in plasma.
Protocol: Oral dose (suspension and solution vehicle) of the compound being tested was administered via gavage in rat (Sprague Dawley) and dog (Beagle). Serial blood samples were collected via jugular vein into pre-chilled K2EDTA with 2 mM dichlorvos (final concentration) for up to 168 h. Whole blood was processed into plasma by centrifuge (3000 rpm for 10 minutes at 5C) within 30 minutes of collection.
Plasma samples were analyzed by direct protein precipitation with acetonitrile and further dilution with water before injecting onto Sciex API 5500 LC/MS/MS system for analysis.
AUC was calculated as Area under the plasma concentration vs. time curve from 0 h to infinity.
The solution vehicles used were 1) 5% ethanol, 20% propylene glycol, and 75% water and 2) 30% 10 mM HCl, 5% ethanol, 45% polyethylene glycol 300, and 20% propylene glycol.
Data set [3] can be described thus: physchem. The following applies: 25 °C, fassif, thermodynamic from solid.

For the molecule `CC(C)(C#Cc1ccc(-c2ccc(Cl)c3c(NS(C)(=O)=O)nn(CC(F)(F)F)c23)c([C@H](Cc2cc(F)cc(F)c2)NC(=O)Cn2nc(C(F)(F)F)c3c2C(F)(F)[C@@H]2C[C@H]32)n1)S(C)(=O)=O` [Intermediate 5, N—((S)-1-(3-(4-chloro-3-(methylsulfonamido)-1-(2,2,2-trifluoroethyl)-1H-indazol-7-yl)-6-(3-methyl-3-(methylsulfonyl)but-1-yn-1-yl)pyridin-2-yl)-2-(3,5-difluorophenyl)ethyl)-2-((3bS,4aR)-5,5-difluoro-3-(trifluoromethyl)-3b,4,4a,5-tetrahydro-1H-cyclopropa[3,4]cyclopenta[1,2-c]pyrazol-1-yl)acetamide, reference compound], in data set [1], the “pH 2 solubility” value came out at 0.11 μM and the “pH 7 solubility” value was 0.32 μM. The “Dog F % (solution)” value in data set [2] is 16%.
`CC(C)(C#Cc1ccc(-c2ccc(Cl)c3c(N(C(=O)[C@H]4C[C@@H](C(=O)O)C4)S(C)(=O)=O)nn(CC(F)(F)F)c23)c([C@H](Cc2cc(F)cc(F)c2)NC(=O)Cn2nc(C(F)(F)F)c3c2C(F)(F)[C@@H]2C[C@H]32)n1)S(C)(=O)=O` [Compound 14, ((1R,3s)-3-((4-chloro-7-(2-((S)-1-(2-((3bS,4aR)-5,5-difluoro-3-(trifluoromethyl)-3b,4,4a,5-tetrahydro-1H-cyclopropa[3,4]cyclopenta[1,2-c]pyrazol-1-yl)acetamido)-2-(3,5-difluorophenyl)ethyl)-6-(3-methyl-3-(methylsulfonyl)but-1-yn-1-yl)pyridin-3-yl)-1-(2,2,2-trifluoroethyl)-1H-indazol-3-yl)(methylsulfonyl)carbamoyl)cyclobutane-1-carboxylic acid)]: in data set [1], the “pH 2 solubility” value is 1 μM and the “pH 7 solubility” value is recorded as 8 μM. In data set [3], this molecule had a solubility of 9 µg/mL (≈ 8.22 µM).

For orientation: solubility means how much of the substance goes into solution per volume.
